The values that follow come from ChEMBL document CHEMBL1143449, “Exploring the connection unit in the HDAC inhibitor pharmacophore model: novel uracil-based hydroxamates” (Bioorg Med Chem Lett, 2005).

One assay addresses T1, Histone deacetylase HD2 (Zea mays, UniProt Q94F81).
T1 sequence (Q94F81 whole entry): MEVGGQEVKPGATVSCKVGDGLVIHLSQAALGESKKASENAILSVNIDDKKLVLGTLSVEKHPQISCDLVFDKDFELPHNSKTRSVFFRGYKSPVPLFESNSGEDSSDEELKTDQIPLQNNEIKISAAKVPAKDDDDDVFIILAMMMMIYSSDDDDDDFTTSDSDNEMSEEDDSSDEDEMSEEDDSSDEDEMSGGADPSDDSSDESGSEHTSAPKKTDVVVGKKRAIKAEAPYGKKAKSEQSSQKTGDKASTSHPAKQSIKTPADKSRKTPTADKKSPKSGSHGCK
Kind of assay: Inhibitory concentration against Histone deacetylase 2 in maize. In kind it is functional.

Assay [1] in a line: Inhibitory concentration against Histone deacetylase 1A in maize. In kind it is functional, Zea mays.
Assay [2] deals with Zea mays. Kind of assay: Selectivity of for class II (HD1A) against class I (HD1B) histone deacetylases. In kind it is functional.
A short description of assay [3]: Inhibitory concentration against Histone deacetylase 1B in maize. The class given is functional, Zea mays.
In assay [4] the test system is Zea mays. The assay is described as follows: Selectivity for class I (HD1B) against class II (HD1A) histone deacetylases. The class given is functional.

Structures are written as SMILES.

In the case of `O=C(CCCCCSc1nc(Cc2ccccc2)cc(=O)[nH]1)NO`, the 50% inhibitory concentration (IC50) against Histone deacetylase HD2 is 0.018 µM; in assay [1], 0.029 µM.

Regarding `O=C(CCCSc1nc(Cc2ccccc2)cc(=O)[nH]1)NO`, on Histone deacetylase HD2, half-maximal inhibition (IC50) required 0.229 µM.

Regarding `CCc1ccccc1-c1cc(O)nc(SCCCCCC(=O)NO)n1`, the Selectivity index with Zea mays [2] is 2. The figures for the IC50 (against Histone deacetylase HD2; in assay [1]; in assay [3]) were 0.035 µM, 0.025 µM and 0.048 µM, respectively.

As for `O=C(CC1CSc2nc(Cc3ccccc3)cc(=O)n21)NO` (stereo not drawn), the results for the IC50 (on Histone deacetylase HD2; in assay [1]; in assay [3]) were 31.8 µM, 38.2 µM and 30.2 µM, respectively.

Turning to `O=C(CCCCCCC(=O)Nc1ccccc1)NO` [VORINOSTAT], in assay [3], the IC50 was 0.028 µM.

Turning to `CCCc1cc(O)nc(SCCCCCC(=O)NO)n1`, the figures for the concentration for half-maximal inhibition (IC50) (against Histone deacetylase HD2; in assay [1]; in assay [3]) were 0.135 µM, 0.066 µM and 0.116 µM, respectively.

As to `O=C(CCCCCCCSc1nc(O)cc(Cc2ccccc2)n1)NO`, in the assay on Zea mays [2], the Selectivity index is 3. Also, the IC50 came out at 0.061 µM on Histone deacetylase HD2, 0.064 µM in assay [1] and 0.193 µM in assay [3].

`O=C(CCCCCSc1nccc(O)n1)NO`: the IC50 against Histone deacetylase HD2 was 0.213 µM; in assay [1] it was 0.132 µM; in assay [3], 0.239 µM.

`O=C(/C=C/Sc1nc(O)cc(Cc2ccccc2)n1)NO`: the IC50 at Histone deacetylase HD2 came out at 9 µM; in assay [1], 13.3 µM; in assay [3] it was 7.4 µM.

`O=C(CCCSc1nc(O)cc(Cc2ccccc2)n1)NO`: the Selectivity index in the assay with Zea mays [4] was found to be 3.5. The IC50 in assay [1] turned out to be 0.885 µM; in assay [3], 0.251 µM.

`O=C(CCCCCSc1nc(-c2ccccc2)cc(=O)[nH]1)NO` gave a Selectivity index in the assay with Zea mays [2] of 3.2. Besides, the IC50 on Histone deacetylase HD2 came to 0.012 µM; in assay [1] it was 0.006 µM; in assay [3], 0.019 µM.

For `O=C(CCCCCCSc1nc(O)cc(Cc2ccccc2)n1)NO`, the 50% inhibitory concentration (IC50) on Histone deacetylase HD2 is 0.037 µM; in assay [1], 0.053 µM; in assay [3], 0.076 µM.

On to `Cc1cc(O)nc(SCCCCCC(=O)NO)n1`, for which the figures for the 50% inhibitory concentration (IC50) (against Histone deacetylase HD2; in assay [1]; in assay [3]) were 0.11 µM, 0.078 µM and 0.112 µM, respectively.

As for `O=C(CCCCSc1nc(O)cc(Cc2ccccc2)n1)NO`, the values for the IC50 (against Histone deacetylase HD2; in assay [1]; in assay [3]) were 0.125 µM, 0.181 µM and 0.13 µM, respectively.

`O=C(O)[C@@H]1C[C@]2(C(=O)O)C=C[C@@H](O)[C@@H](C2)O1`: in the assay on Zea mays [4], the Selectivity index was 2. Also, the concentration for half-maximal inhibition (IC50) on Histone deacetylase HD2 came to 0.007 µM; in assay [1], 0.0008 µM; in assay [3], 0.0004 µM.

In the case of `O=C(CCSc1nc(O)cc(Cc2ccccc2)n1)NO`, the Selectivity index in the assay with Zea mays [4] was 3.1. The IC50 stood at 0.038 µM against Histone deacetylase HD2, 0.126 µM in assay [1] and 0.041 µM in assay [3].

The IC50 is the point on the concentration scale where inhibition reaches its midpoint. A low value points to higher potency.
